Data on 28 compounds can be found in patent publication US11459315B2, “Modulators of methyl modifying enzymes, compositions and uses thereof” (Constellation Pharmaceuticals, Inc., priority 2017, dated 2022).

In assay [1] the test system is H3K27me3 mark in HeLa cells (EZH2). The assay is described as follows: H3K27me3 Alpha Hela Assay (AlphaLISA). It counts as cell-based. Particulars: HeLa cells, 72 hrs, read-out: EZH2 Cell H3K27me3 Alpha HeLa (EC50 K27me3). The method, boiled down: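 HeLa cells (1,000/well) treated with ten 3-fold compound doses for 72 h at 37 °C; lysates extracted and H3K27me3 detected by AlphaLISA with anti-K27me3 acceptor beads, biotinylated anti-H3 (3 nM) and streptavidin donor beads. EC50 from DMSO-normalized dose-response curves; duplicate plate assessed viability.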

The target in assay [2] is PRC2 containing wt EZH2 (Homo sapiens (Human), UniProt Q15910). The assay is described as follows: EZH2 biochemical assay (IC50), 3H-SAM incorporation into biotinylated H3 peptide. The method, boiled down:
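The PRC2 pentamer with wt EZH2 (30 pM) was pre-incubated for 3-5 h with 450 nM SAM plus 450 nM ³H-SAM, 2 µM H3K27me3 activating peptide and compound (0.8% DMSO) in Tris at pH 8.5. Biotinylated H3K27me1 peptide was added and the reaction ran 18-22 h at RT. Incorporated ³H was captured on streptavidin plates, and IC50 was taken from a four-parameter fit.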

Setting [3] is: EZH2 (IC50), 30 pM PRC2 containing wt EZH2; 3-5 h pre-incubation.
Setting [4] is: 30 pM PRC2 containing wt EZH2; 3-5 h pre-incubation; read-out: EZH2 (IC50).
[5] abbreviates: read-out: EZH2 (IC50); 30 pM PRC2 containing wt EZH2; 3-5 h pre-incubation.

The structures appear in SMILES notation. Where two headings read alike, the source gives them in different places.

Sequence of PRC2 containing wt EZH2 (Q15910 whole entry): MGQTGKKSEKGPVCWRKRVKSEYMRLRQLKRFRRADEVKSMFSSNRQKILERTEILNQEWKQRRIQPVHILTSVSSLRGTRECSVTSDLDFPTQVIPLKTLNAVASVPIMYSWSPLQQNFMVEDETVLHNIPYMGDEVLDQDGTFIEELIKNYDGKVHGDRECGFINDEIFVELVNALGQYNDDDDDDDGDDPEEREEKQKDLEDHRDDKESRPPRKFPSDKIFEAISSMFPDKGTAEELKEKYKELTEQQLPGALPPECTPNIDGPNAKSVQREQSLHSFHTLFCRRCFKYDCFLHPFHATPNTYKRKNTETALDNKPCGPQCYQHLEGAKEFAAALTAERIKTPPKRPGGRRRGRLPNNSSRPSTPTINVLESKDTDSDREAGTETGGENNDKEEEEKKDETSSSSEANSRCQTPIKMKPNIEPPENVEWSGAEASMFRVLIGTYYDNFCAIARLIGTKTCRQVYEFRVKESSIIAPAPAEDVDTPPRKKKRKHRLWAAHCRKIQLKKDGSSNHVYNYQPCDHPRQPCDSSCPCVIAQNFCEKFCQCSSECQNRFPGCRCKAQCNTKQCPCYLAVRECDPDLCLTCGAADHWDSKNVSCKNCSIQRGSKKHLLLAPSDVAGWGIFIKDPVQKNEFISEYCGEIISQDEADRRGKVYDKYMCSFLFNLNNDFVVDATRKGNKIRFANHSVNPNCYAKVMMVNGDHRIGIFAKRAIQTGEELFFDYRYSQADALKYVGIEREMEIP
Sequence of PRC2 containing wt EZH2 (O75530 whole entry partner): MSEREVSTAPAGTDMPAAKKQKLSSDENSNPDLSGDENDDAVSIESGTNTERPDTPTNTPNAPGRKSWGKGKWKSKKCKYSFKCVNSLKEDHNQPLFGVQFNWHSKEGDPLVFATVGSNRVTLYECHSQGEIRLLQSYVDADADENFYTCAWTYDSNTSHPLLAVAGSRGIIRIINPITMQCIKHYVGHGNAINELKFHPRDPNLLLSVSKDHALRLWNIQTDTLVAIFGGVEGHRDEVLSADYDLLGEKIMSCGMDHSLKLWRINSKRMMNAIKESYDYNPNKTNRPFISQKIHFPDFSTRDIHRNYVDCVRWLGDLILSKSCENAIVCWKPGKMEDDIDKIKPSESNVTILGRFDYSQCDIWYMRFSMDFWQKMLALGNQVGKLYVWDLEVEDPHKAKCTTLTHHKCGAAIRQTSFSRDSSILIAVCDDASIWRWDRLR
Sequence of PRC2 containing wt EZH2 (Q15022 whole entry partner): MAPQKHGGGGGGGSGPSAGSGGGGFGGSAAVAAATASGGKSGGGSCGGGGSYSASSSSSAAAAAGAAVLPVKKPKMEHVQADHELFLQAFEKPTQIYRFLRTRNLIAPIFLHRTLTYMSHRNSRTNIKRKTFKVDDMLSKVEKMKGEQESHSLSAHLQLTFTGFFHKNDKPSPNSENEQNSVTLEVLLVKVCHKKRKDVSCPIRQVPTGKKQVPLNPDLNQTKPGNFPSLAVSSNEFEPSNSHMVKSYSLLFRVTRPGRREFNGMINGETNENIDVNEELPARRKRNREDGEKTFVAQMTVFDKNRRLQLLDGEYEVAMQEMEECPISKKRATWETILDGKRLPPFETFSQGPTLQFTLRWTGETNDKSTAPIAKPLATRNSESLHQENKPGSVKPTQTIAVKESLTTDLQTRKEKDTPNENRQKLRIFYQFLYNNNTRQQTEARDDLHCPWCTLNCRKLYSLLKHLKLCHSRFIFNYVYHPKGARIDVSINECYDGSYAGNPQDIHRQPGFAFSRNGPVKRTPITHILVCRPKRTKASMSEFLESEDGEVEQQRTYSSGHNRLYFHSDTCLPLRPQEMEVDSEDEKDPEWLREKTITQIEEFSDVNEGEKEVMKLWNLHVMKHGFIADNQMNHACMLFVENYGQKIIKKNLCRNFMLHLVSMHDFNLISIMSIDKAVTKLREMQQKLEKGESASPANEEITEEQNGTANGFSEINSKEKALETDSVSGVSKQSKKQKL
Sequence of PRC2 containing wt EZH2 (Q09028 whole entry partner): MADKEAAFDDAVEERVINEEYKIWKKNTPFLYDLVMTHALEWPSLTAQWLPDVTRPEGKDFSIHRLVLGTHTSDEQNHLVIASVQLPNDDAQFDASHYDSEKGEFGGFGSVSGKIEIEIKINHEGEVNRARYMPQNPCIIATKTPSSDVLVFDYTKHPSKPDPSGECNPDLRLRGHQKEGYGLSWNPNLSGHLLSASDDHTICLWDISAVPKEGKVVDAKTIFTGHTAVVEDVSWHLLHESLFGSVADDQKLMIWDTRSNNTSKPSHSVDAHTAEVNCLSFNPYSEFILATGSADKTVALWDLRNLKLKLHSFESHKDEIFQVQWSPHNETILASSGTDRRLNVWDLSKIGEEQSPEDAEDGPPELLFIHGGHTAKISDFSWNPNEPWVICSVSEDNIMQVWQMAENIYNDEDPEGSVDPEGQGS
Sequence of PRC2 containing wt EZH2 (Q6ZN18 whole entry partner): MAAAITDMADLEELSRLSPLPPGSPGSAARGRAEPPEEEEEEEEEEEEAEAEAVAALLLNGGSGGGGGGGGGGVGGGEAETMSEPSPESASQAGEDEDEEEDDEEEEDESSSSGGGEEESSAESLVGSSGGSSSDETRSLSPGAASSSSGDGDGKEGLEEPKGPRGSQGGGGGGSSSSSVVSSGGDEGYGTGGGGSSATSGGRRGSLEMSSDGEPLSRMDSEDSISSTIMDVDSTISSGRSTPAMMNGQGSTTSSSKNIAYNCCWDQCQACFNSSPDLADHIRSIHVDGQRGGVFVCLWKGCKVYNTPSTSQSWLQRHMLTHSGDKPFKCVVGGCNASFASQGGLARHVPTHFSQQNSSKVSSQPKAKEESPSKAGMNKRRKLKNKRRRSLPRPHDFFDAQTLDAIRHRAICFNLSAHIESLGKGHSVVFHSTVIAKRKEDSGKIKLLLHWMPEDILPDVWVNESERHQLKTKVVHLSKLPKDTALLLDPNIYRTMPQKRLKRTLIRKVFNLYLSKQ

Turning to `CSc1cc(C)[nH]c(=O)c1CNC(=O)c1c(C)n([C@H](C)C2CCN(C3CC3)CC2)c2ncncc12` [Example 50, (R)-7-(1-(1-cyclopropylpiperidin-4-yl)ethyl)-6-methyl-N-((6-methyl-4-(methylthio)-2-oxo-1,2-dihydropyridin-3-yl)methyl)-7H-pyrrolo[2,3-d]pyrimidine-5-carboxamide], the EC50 in assay [1] (Homo sapiens, HeLa, 72 h) was less than 10 nM. The compound also registered a concentration for half-maximal inhibition (IC50) in assay [2] (setting [3]) of less than 0.5 nM.
The like results for `CSc1cc(C)[nH]c(=O)c1CNC(=O)c1c(C)n([C@H](C)C2CCC(OC3CC3)CC2)c2ccccc12` (stereo partly drawn) [Example 132, 1-((R)-1-(4-cyclopropoxycyclohexyl)ethyl)-2-methyl-N-((6-methyl-4-(methylthio)-2-oxo-1,2-dihydropyridin-3-yl)methyl)-1H-indole-3-carboxamide] were, in that order, less than 10 nM and less than 0.5 nM.
Regarding `CSc1cc(C)[nH]c(=O)c1CNC(=O)c1c(C)n([C@H](C)[C@H]2OC[C@@H](N3CCC34COC4)CO2)c2ccccc12` (single isomer, unassigned; isomer 1) [150 (isomer 1)], the EC50 in assay [1] was more than 100 nM. For the same compound, in assay [2] (setting [4]), the half-maximal inhibitory concentration (IC50) is 0.5 to 5 nM.
Turning to `CSc1cc(C)[nH]c(=O)c1CNC(=O)c1c(C)n([C@H](C)C2CCN(C3CC(F)C3)CC2)c2ccccc12` (single isomer, unassigned) [64 (isomer 1)], the EC50 in assay [1] (Homo sapiens, HeLa, 72 h) is 10 to 100 nM. This compound came in with a 50% inhibitory concentration (IC50) in assay [2] (setting [3]) of less than 0.5 nM.
On to `COc1cnc2c(c1)c(C(=O)NCc1c(SC)cc(C)[nH]c1=O)c(C)n2[C@H](C)C1CCC(N2CC(OC(F)F)C2)CC1` (single isomer, unassigned) [125 (isomer 1)], for which the EC50 in assay [1] (Homo sapiens, HeLa, 72 h) is less than 10 nM. The concentration for half-maximal inhibition (IC50) in assay [2] (setting [4]) was less than 0.5 nM.
As for `CSc1cc(C)[nH]c(=O)c1CNC(=O)c1c(C)n([C@H](C)C2CCN(CC(F)(F)F)CC2)c2ccccc12` [Example 12, (R)-2-methyl-N-((6-methyl-4-(methylthio)-2-oxo-1,2-dihydropyridin-3-yl)methyl)-1-(1-(1-(2,2,2-trifluoroethyl)piperidin-4-yl)ethyl)-1H-indole-3-carboxamide], in assay [1] (Homo sapiens, HeLa, 72 h), the half-maximal effective concentration (EC50) is less than 10 nM. The half-inhibitory concentration (IC50) in assay [2] (setting [3]) is less than 0.5 nM.
The like results for `CSc1cc(C)[nH]c(=O)c1CNC(=O)c1c(C)n([C@H](C)C2COC2)c2ccccc12` (single isomer, unassigned) [14 (isomer 1)] were, in that order, 10 to 100 nM and less than 0.5 nM.
For `CSc1cc(C)[nH]c(=O)c1CNC(=O)c1c(C)n([C@H](C)C2CCC(N3CC(F)C3)CC2)c2ncc(Cl)cc12` (stereo partly drawn) [Example 98, 5-chloro-1-((R)-1-(4-(3-fluoroazetidin-1-yl)cyclohexyl)ethyl)-2-methyl-N-((6-methyl-4-(methylthio)-2-oxo-1,2-dihydropyridin-3-yl)methyl)-1H-pyrrolo[2,3-b]pyridine-3-carboxamide] the same measures were less than 10 nM and less than 0.5 nM.
With `CSc1cc(C)[nH]c(=O)c1CNC(=O)c1c(C)n([C@H](C)C2CCC(N3CC[C@@H](F)C3)CC2)c2ccccc12` (single isomer, unassigned) [79 (isomer 2)], the EC50 in assay [1] lay in the range of 10 to 100 nM. In addition, the IC50 in assay [2] (setting [5]) is less than 0.5 nM.
As to `CSc1cc(C)[nH]c(=O)c1CNC(=O)c1c(C)n([C@H](C)C2CCC(O)CC2)c2ncc(Cl)cc12` (single isomer, unassigned) [53 (isomer 1)], the half-maximal effective concentration (EC50) in assay [1] (Homo sapiens, HeLa, 72 h) is 10 to 100 nM. The 50% inhibitory concentration (IC50) in assay [2] (setting [3]) is less than 0.5 nM.
Consider `CSc1cc(C)[nH]c(=O)c1CNC(=O)c1c(C)n([C@H](C)C2CCC(NC3(C)CCOC3)CC2)c2ccccc12` (single isomer, unassigned) [149 (isomer 1)], for which, in assay [1] (Homo sapiens, HeLa, 72 h), the concentration giving a half-maximal response (EC50) fell in the range of 10 to 100 nM. The IC50 in assay [2] (setting [4]) was less than 0.5 nM.
For the compound `CSc1cc(C)[nH]c(=O)c1CNC(=O)c1c(C)n([C@H](C)C2CCC(O)CC2)c2ncccc12` (single isomer, unassigned) [36 (isomer 1)], the EC50 in assay [1] (Homo sapiens, HeLa, 72 h) is 10 to 100 nM. Besides, the IC50 in assay [2] (setting [3]) is less than 0.5 nM.
Take `CSc1cc(C)[nH]c(=O)c1CNC(=O)c1c(C)n([C@H](C)C2CCN(C#N)CC2)c2ccccc12` [Example 39, (R)-1-(1-(1-cyanopiperidin-4-yl)ethyl)-2-methyl-N-((6-methyl-4-(methylthio)-2-oxo-1,2-dihydropyridin-3-yl)methyl)-1H-indole-3-carboxamide]: the concentration giving a half-maximal response (EC50) in assay [1] (Homo sapiens, HeLa, 72 h) fell in the range of 10 to 100 nM. Moreover, the 50% inhibitory concentration (IC50) in assay [2] (setting [3]) was less than 0.5 nM.
Regarding `CSc1cc(C)[nH]c(=O)c1CNC(=O)c1c(C)n([C@H](C)C2CCN(C3CC3)CC2)c2ncc(F)cc12` [Example 58, (R)-1-(1-(1-cyclopropylpiperidin-4-yl)ethyl)-5-fluoro-2-methyl-N-((6-methyl-4-(methylthio)-2-oxo-1,2-dihydropyridin-3-yl)methyl)-1H-pyrrolo[2,3-b]pyridine-3-carboxamide], the EC50 in assay [1] (Homo sapiens, HeLa, 72 h) was less than 10 nM. The compound further displayed a half-maximal inhibitory concentration (IC50) in assay [2] (setting [3]) of less than 0.5 nM.
As to `CSc1cc(C)[nH]c(=O)c1CNC(=O)c1c(C)n([C@H](C)C2CCC(OC3COC3)CC2)c2ccccc12` (single isomer, unassigned) [137 (isomer 2)], the EC50 in assay [1] was less than 10 nM. Besides, the half-inhibitory concentration (IC50) in assay [2] (setting [5]) was less than 0.5 nM.
Consider `CSc1cc(C)[nH]c(=O)c1CNC(=O)c1c(C)n([C@H](C)C2CCC(N3CC(OC4CC4)C3)CC2)c2ncncc12` (single isomer, unassigned) [102 (isomer 1)], for which the concentration giving a half-maximal response (EC50) in assay [1] (Homo sapiens, HeLa, 72 h) is less than 10 nM. Also, the IC50 in assay [2] (setting [4]) is less than 0.5 nM.
For `CSc1cc(C)[nH]c(=O)c1CNC(=O)c1c(C)n([C@H](C)C2CCN(C(=O)CO)CC2)c2ccccc12` [Example 135, (R)-1-(1-(1-(2-hydroxyacetyl)piperidin-4-yl)ethyl)-2-methyl-N-((6-methyl-4-(methylthio)-2-oxo-1,2-dihydropyridin-3-yl)methyl)-1H-indole-3-carboxamide] the same measures were more than 100 nM and less than 0.5 nM.
The like results for `CSc1cc(C)[nH]c(=O)c1CNC(=O)c1c(C)n([C@H](C)C2CCC(N3CC(OC4CC4)C3)CC2)c2c(F)cccc12` (single isomer, unassigned) [113 (isomer 1)] were, in that order, less than 10 nM and less than 0.5 nM.
On to `CSc1cc(C)[nH]c(=O)c1CNC(=O)c1c(C)n([C@H](C)[C@H]2OC[C@H](N3CCC34COC4)CO2)c2ccccc12` (single isomer, unassigned; isomer 2) [150 (isomer 2)], for which the EC50 in assay [1] was less than 10 nM. The half-inhibitory concentration (IC50) in assay [2] (setting [4]) is less than 0.5 nM.
In the case of `CSc1cc(C)[nH]c(=O)c1CNC(=O)c1c(C)n([C@H](C)C2CCC(N(C)C)CC2)c2ncccc12` (single isomer, unassigned) [51 (isomer 2)], the EC50 in assay [1] is more than 100 nM. For the same compound, the IC50 in assay [2] (setting [4]) is less than 0.5 nM.
On to `CSc1cc(C)[nH]c(=O)c1CNC(=O)c1c(C)n([C@H](C)C2CCC(N3CC(OC(F)(F)F)C3)CC2)c2ncncc12` (single isomer, unassigned) [123 (isomer 1)], for which the EC50 in assay [1] (Homo sapiens, HeLa, 72 h) was less than 10 nM. In addition, the concentration for half-maximal inhibition (IC50) in assay [2] (setting [4]) was less than 0.5 nM.
As for `CSc1cc(C)[nH]c(=O)c1CNC(=O)c1c(C)n([C@@H](C)[C@H]2OC[C@@H](N3CCC34COC4)CO2)c2ccccc12` (single isomer, unassigned; isomer 1) [151 (isomer 1)], the EC50 in assay [1] was more than 100 nM. Also, the concentration for half-maximal inhibition (IC50) in assay [2] (setting [4]) lay in the range of 0.5 to 5 nM.
In the case of `CSc1cc(C)[nH]c(=O)c1CNC(=O)c1c(C)n([C@H](C)C2CCC(N3CCC(OC4CC4)C3)CC2)c2ncccc12` (stereo partly drawn) [Example 111, 1-((1R)-1-(4-(3-cyclopropoxypyrrolidin-1-yl)cyclohexyl)ethyl)-2-methyl-N-((6-methyl-4-(methylthio)-2-oxo-1,2-dihydropyridin-3-yl)methyl)-1H-pyrrolo[2,3-b]pyridine-3-carboxamide], the EC50 in assay [1] (Homo sapiens, HeLa, 72 h) lay within 10 to 100 nM. Moreover, the IC50 in assay [2] (setting [4]) was less than 0.5 nM.
The like results for `CSc1cc(C)[nH]c(=O)c1CNC(=O)c1c(C)n([C@H](C)[C@H]2CC[C@H](NC3(C)COC3)CC2)c2ccccc12` (single isomer, unassigned) [1 (isomer 1)] were, in that order, less than 10 nM and less than 0.5 nM.
For `CSc1cc(C)[nH]c(=O)c1CNC(=O)c1c(C)n([C@H](C)c2cnc(C)nc2)c2ccccc12` [Example 35, (R)-2-methyl-N-((6-methyl-4-(methylthio)-2-oxo-1,2-dihydropyridin-3-yl)methyl)-1-(1-(2-methylpyrimidin-5-yl)ethyl)-1H-indole-3-carboxamide], the EC50 in assay [1] (Homo sapiens, HeLa, 72 h) was more than 100 nM. Further, the IC50 in assay [2] (setting [4]) was more than 5 nM.
Turning to `CSc1cc(C)[nH]c(=O)c1CNC(=O)c1c(C)n([C@H](C)C2CCC(N3CC[C@@H](F)C3)CC2)c2ncc(Cl)cc12` (stereo partly drawn) [Example 107, 5-chloro-1-((R)-1-(4-((R)-3-fluoropyrrolidin-1-yl)cyclohexyl)ethyl)-2-methyl-N-((6-methyl-4-(methylthio)-2-oxo-1,2-dihydropyridin-3-yl)methyl)-1H-pyrrolo[2,3-b]pyridine-3-carboxamide], the half-maximal effective concentration (EC50) in assay [1] (Homo sapiens, HeLa, 72 h) was in the range of 10 to 100 nM. Moreover, the IC50 in assay [2] (setting [4]) is less than 0.5 nM.
Consider `COCCOC1CCC([C@@H](C)n2c(C)c(C(=O)NCc3c(SC)cc(C)[nH]c3=O)c3ccccc32)CC1` (single isomer, unassigned) [67 (isomer 2)], for which the 50% effective concentration (EC50) in assay [1] was less than 10 nM. For the same compound, the concentration for half-maximal inhibition (IC50) in assay [2] (setting [3]) is less than 0.5 nM.
`CSc1cc(C)[nH]c(=O)c1CNC(=O)c1c(C)n([C@H](C)C2CCC(N3CC(OC4CC4)C3)CC2)c2ccccc12` (stereo partly drawn) [Example 100, 1-((R)-1-(4-(3-cyclopropoxyazetidin-1-yl)cyclohexyl)ethyl)-2-methyl-N-((6-methyl-4-(methylthio)-2-oxo-1,2-dihydropyridin-3-yl)methyl)-1H-indole-3-carboxamide]: in assay [1] (Homo sapiens, HeLa, 72 h), the concentration giving a half-maximal response (EC50) is less than 10 nM. The IC50 in assay [2] (setting [4]) was less than 0.5 nM.
